Columns and labels:
ovine COX-1 = target: T1, ovine COX-1 (Ovis aries, UniProt P05979); assay: COX (ovine) Inhibitor Screening Assay, COX-1; type: biochemical; conditions: PGF2α by EIA, 18 hours of incubation
T1 sequence (P05979 25-600): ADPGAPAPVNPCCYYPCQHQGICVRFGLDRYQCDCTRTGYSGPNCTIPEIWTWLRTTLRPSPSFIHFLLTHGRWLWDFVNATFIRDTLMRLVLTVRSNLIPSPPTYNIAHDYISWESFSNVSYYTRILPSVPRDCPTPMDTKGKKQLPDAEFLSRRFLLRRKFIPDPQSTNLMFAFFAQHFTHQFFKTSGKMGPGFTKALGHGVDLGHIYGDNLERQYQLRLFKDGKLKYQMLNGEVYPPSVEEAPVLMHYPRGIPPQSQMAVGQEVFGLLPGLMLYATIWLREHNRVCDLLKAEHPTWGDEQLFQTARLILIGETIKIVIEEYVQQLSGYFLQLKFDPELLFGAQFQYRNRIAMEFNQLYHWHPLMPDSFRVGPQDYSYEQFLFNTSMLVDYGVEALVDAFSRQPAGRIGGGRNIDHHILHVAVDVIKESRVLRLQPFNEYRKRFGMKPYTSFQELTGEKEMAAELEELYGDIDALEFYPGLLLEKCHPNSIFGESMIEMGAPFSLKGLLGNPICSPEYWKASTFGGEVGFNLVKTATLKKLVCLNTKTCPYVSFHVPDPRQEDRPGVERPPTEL
Experimental: (§1) The COX (ovine) Inhibitor Screening Assay was performed mainly to determine the selective inhibition of tested compounds (6, 7, 8 and 9) towards the ovine COX-1 and human recombinant COX-2 isoenzymes. Adding arachidonic acid (AA) helped convert the COX component into PGG2, followed by a reduction of PGG2 into PGH2. The following addition of SnCl2 converted PGH2 into PGF2α. The assay directly measures the PGF2α via enzyme immunoassay (EIA) using a broadly specific antiserum that is bound to all PG tracers. Depending on the tested compounds inhibitory effect, the concentration of PGF2α in each well varied and was inversely proportional to the amount of PG tracers that were able to bind to the antiserum. PG tracers-antiserum complex was left to bind to the mouse monoclonal anti-rabbit antibody that had been coated to the well during the 18 hours of incubation. Ellman's reagent was added to give distinct yellow coloration to the products from this enzymatic reaction, which absorbed strongly at 412 nm. The intensity of the color was proportional to the amount of PG tracers-antiserum complex bound to the well, which was inversely proportional to the concentration of PGF2α present.
(§2) The inhibitory activity of tested compounds was determined based on IC50 values, whereas the selectivity was based on their selectivity indices (SI), which are defined as COX-1 IC50/COX-2 IC50. In the assay system, indomethacin was used as a non-selective COX inhibitor standard, while NS-398 was used as a COX-2 selective inhibitor standard.

human recombinant COX-2 = target: T2, human recombinant COX-2 (Homo sapiens, UniProt P35354); assay: COX (ovine) Inhibitor Screening Assay, COX-2; type: biochemical; conditions: for IC50: human recombinant COX-2, PGF2α by EIA, 18 hours of incubation; for selectivity of inhibition, COX-2 versus COX-1, in words: ovine COX-1 versus human recombinant COX-2
T2 sequence (P35354 18-604): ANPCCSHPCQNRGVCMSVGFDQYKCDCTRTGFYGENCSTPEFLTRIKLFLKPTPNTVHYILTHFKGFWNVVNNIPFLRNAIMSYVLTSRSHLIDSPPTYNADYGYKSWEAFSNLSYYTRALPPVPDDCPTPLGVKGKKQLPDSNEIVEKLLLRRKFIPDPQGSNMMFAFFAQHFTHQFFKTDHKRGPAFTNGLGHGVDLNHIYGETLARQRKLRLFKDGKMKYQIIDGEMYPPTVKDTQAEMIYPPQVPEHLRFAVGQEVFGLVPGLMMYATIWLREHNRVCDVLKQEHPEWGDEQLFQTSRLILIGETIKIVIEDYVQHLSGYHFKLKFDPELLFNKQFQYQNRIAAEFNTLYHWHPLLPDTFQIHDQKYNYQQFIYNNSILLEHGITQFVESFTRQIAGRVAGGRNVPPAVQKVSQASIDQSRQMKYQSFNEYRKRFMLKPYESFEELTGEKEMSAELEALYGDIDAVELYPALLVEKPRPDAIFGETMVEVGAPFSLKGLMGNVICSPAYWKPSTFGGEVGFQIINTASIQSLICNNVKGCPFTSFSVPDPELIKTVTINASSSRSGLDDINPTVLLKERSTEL
Experimental: as §1, §2

Row | IC50 (ovine COX-1) [µM] | SI (selectivity index, COX-1 IC50/COX-2 IC50) (human recombinant COX-2) | IC50 (human recombinant COX-2) [µM] | selectivity of inhibition, COX-2 versus COX-1, in words (human recombinant COX-2) | SMILES
1 | 38.5 | 0.68 | 56.4 | mild selective inhibition against COX-2 | O=c1[nH]c(Cc2ccc(F)cc2)nc2sc3c(c12)CCC3 [Compound 6, 2-(4-Fluorobenzyl)-3,5,6,7-tetrahydro-4H-cyclopenta[4,5]thieno[2,3-d]pyrimidin-4-one]
2 | 224 | 6.98 | 32.1 | mild selective inhibition against COX-2 | COc1ccc(Cc2nc3sc4c(c3c(=O)[nH]2)CCC4)cc1 [Compound 7, 2-(4-Methoxybenzyl)-3,5,6,7-tetrahydro-4H-cyclopenta[4,5]thieno[2,3-d]pyrimidin-4-one]
3 | 83.8 | 11.41 | 7.3 | mild selective inhibition against COX-2 | COc1ccc(-c2nc3sc4c(c3c(=O)[nH]2)CCC4)cc1 [Compound 8, 2-(4-Methoxyphenyl)-3,5,6,7-tetrahydro-4H-cyclopenta[4,5]thieno[2,3-d]pyrimidin-4-one]
4 | 69.2 | 1.26 | 54.9 | mild selective inhibition against COX-2 | O=C(Nc1nc2sc3c(c2c(=O)[nH]1)CCC3)c1ccc(F)cc1 [Compound 9, 4-Fluoro-N-(4-oxo-3,5,6,7-tetrahydro-4H-cyclopenta[4,5]thieno[2,3-d]pyrimidin-2-yl)benzamide]

Source: patent US12227516B1, “Selective COX-2 inhibition of 2-(substituted benzyl)-3,5,6,7-tetrahydro-4H-cyclopenta[4,5]thieno[2,3-d]pyrimidin-4-ones and 4-fluoro-n-(4-oxo-3,5,6,7-tetrahydro-4H-cyclopenta[4,5]thieno[2,3-d]pyrimidin-2-yl)benzamide as anti-inflammatory agents” (KING FAISAL UNIVERSITY, priority 2023, dated 2025)
